Assay results: patent publication US6667336B2, “GlyT-1 inhibitors” (NPS Allelix Corp., priority 2002, dated 2003)
“And” between values parts separate entries of the source, which are not always exact repeats. Equal values may be shown once.

Test system: male CD-1 mice
Assay: 5 day chronic oral dosing toxicity study in mice (clinical signs)
Format: in vivo
Parameters: key to Clinical signs (observation code), Day 1, 24 hours / Clinical signs (observation code), Day 2, 24 hours / Clinical signs (observation code), Day 3, 24 hours / Clinical signs (observation code), Day 4, 24 hours / Clinical signs (observation code), Day 5, 24 hours / Clinical signs (observation code), Day 1, 4 hours / Clinical signs (observation code), Day 2, 4 hours / Clinical signs (observation code), Day 3, 4 hours / Clinical signs (observation code), Day 4, 4 hours / Clinical signs (observation code), Day 5, 4 hours: 0: Appeared Normal; 1: Activity (inc./dec.); 2: Sedation/Lethargy; 3: Piloerection; 4: Stereotypy; 5: Soft Stool; 6: Chromodacryorrhea; 7: Epistaxis; 8: Cyanosis; 9: Flaccidity; 10: Respiration; 11: Hunched Posture; 12: Enophthalmia; 13: Exophthalmia; 14: Palpabral Ptosis; 15: Loss of Righting; 16: Chromaturia; 17: Salivation; 18: Lacrimation; 19: Miosis; 20: Mydriasis; 21: Rigidity; 22: Ataxia; 23: Tremors; 24: Convulsions; 25: Catalepsy; 26: Lateral Recumbency; 27: Death
Conditions: for Clinical signs (observation code), Day 1, 4 hours / Clinical signs (observation code), Day 1, 24 hours / Clinical signs (observation code), Day 2, 4 hours / Clinical signs (observation code), Day 2, 24 hours / Clinical signs (observation code), Day 3, 4 hours / Clinical signs (observation code), Day 3, 24 hours / Clinical signs (observation code), Day 4, 4 hours / Clinical signs (observation code), Day 4, 24 hours / Clinical signs (observation code), Day 5, 4 hours / Clinical signs (observation code), Day 5, 24 hours: 40 mg/kg/day PO, male CD-1 mice, one line per animal
Method: This example illustrated a 5 day chronic oral dosing toxicity study with GlyT1 inhibitors. […] Behavioral observations (clinical signs) and body weights were recorded daily for all compounds tested. Male CD-1 mice were purchased from Charles River Labs (Kingston, N.Y.). The animals weighed between 20-25 grams upon arrival. Animals were acclimatized in a temperature/humidity (72° ±5° F./50%±5%) controlled vivarium, with a common 12 hour light/dark cycle (Lights on 0700 hrs) for 5 days prior to test. All animals were allowed food (Purina Labdiete® Rodent chow # 5001) and water (supplied by Elizabethtown Water Company) ad libitum during the acclimation period and throughout the study. On the day prior to test initiation animals were randomly assigned to groups: All animals chosen for test weighed at least 20 grams and appeared in good condition. Each animal was dosed once daily for 5 days. Animals remained on site for a 3 day recovery period following the chronic dosing period.
A stock concentration of each test compound was prepared fresh on the day of study initiation. Aliquots were diluted to the needed concentrations for daily dosing. Stock solutions were kept in a refrigerator when not in use. Each compound was dissolved in a small amount of distilled water. One equivalent of sodium hydroxide (2 N) may have been added to aid in dissolution of each test agent. Vehicle was then added quantum sufficiat to give the final volume. Final volumes were adjusted to reflect percent free base when appropriate. The vehicle used in this experiment was Hydroxypropyl-β-cyclodextrine (HPCD) Acros, lot 011849601, dissolved in distilled water to form a 10% weight/volume concentration. The pH was adjusted, using sodium hydroxide (2 N), to equal that of the test agents (usually between 8 to 10). All prepared test compounds were either in solution, and clear, or in suspension, and slightly cloudy. Suspensions were mixed immediately prior to use.
All animals were administered either test compound or vehicle Per Os (PO) via 21 gauge gavage needles, in volumes of 10.0 ml/kg. Daily body weights were used to determine individual dosing volumes. All test compounds were weighed on a Denver Instruments analytical balance (model # A-250). Animals were weighed on a top loading Ohaus portable balance model # LS2000.
Animals were assessed for overt behaviors (clinical signs) immediately following administration of test agents, then again at 4 and 24 hours. Animals were assessed for 27 separate clinical signs:
Toxicity data obtained through the assay as described above is provided in Tables 1 to 14 for Compounds Gi to Gxiv inclusive. The animals were observed immediately following administration and again at 4 hours and 24 hours. Observations are reported using the code number from the following chart: […]

| SMILES | Clinical signs (observation code), Day 1, 4 hours | Clinical signs (observation code), Day 1, 24 hours | Clinical signs (observation code), Day 2, 4 hours | Clinical signs (observation code), Day 2, 24 hours | Clinical signs (observation code), Day 3, 4 hours | Clinical signs (observation code), Day 3, 24 hours | Clinical signs (observation code), Day 4, 4 hours | Clinical signs (observation code), Day 4, 24 hours | Clinical signs (observation code), Day 5, 4 hours | Clinical signs (observation code), Day 5, 24 hours | Toxicity profile in comparison (compounds of formula 1 vs other GlyT1 inhibitors of similar potency) (5 day oral dosing in mice, tables 1-18) |
| --- | --- | --- | --- | --- | --- | --- | --- | --- | --- | --- | --- |
| CN(C/C=C(/c1ccc(-c2cccc(C#N)c2)cc1)c1ccsc1)CC(=O)O [Compound G(viii), (Z)-N-(1-(4-(3-Cyanophenyl)phenyl)-1-(3-thienyl)prop-1-en-3-yl)sarcosine] | 0 | 0 | 0 | 0 | 0 | 0 | 0 | 0 | 0 | 0 | – |
| CN(C/C=C(\c1ccccc1)c1ccc(-c2ccsc2)cc1)CC(=O)O [Compound I, reference compound] | – | 0 | – | 0 | – | 0 | – | 0 | – | – | higher toxicity profile |
| Cc1cccc(-c2ccc(/C(=C/CN(C)CC(=O)O)c3sccc3C)cc2)c1 [Compound G(xiii), (Z)-N-(1-(4-(3-Methylphenyl)phenyl)-1-(2-(3-methylthienyl))prop-1-en-3-yl)sarcosine] | 0 | 0 | 0 | 0 | 0 | 0 | 0 | 0 | 0 | – | – |
| CN(C/C=C(/c1ccc(-c2cccs2)cc1)c1ccsc1)CC(=O)O [Compound G(iii), (Z)-N-(1-(4-(2-Thienyl)phenyl)-1-(3-thienyl)prop-1-en-3-yl)sarcosine] | 0 | 0 | 0 | 0 | 0 | 0 | 14 and 0 | 0 | 0 | 0 | – |
| Cc1cccc(-c2ccc(/C(=C/CN(C)CC(=O)O)c3ccsc3)cc2)c1 [Compound G(vi), (Z)-N-(1-(4-(3-Methylphenyl)phenyl)-1-(3-thienyl)prop-1-en-3-yl)sarcosine] | 0 | 0 | 0 | 0 | 0 | 0 | 0 | 0 | 0 | 0 | – |
| Cc1cscc1/C(=C\CN(C)CC(=O)O)c1ccc(-c2ccsc2)cc1 [Compound G(x), (Z)-N-(1-(4-(3-Thienyl)phenyl)-1-(3-(4-methylthienyl))prop-1-en-3-yl)sarcosine] | 0 | 0 | 0 | 0 | 0 | 0 | 0 | 0 | 0 | – | – |
| CN(C/C=C(/c1ccc(-c2ccsc2)cc1)c1cccs1)CC(=O)O [Compound G(ix), (Z)-N-(1-(4-(3-Thienyl)phenyl)-1-(2-thienyl)prop-1-en-3-yl)sarcosine] | 0 | 0 | 0 | 0 | 0 | 0 | 0 | 0 | 0 | 0 | – |
| Cc1cscc1/C(=C\CN(C)CC(=O)O)c1ccc(-c2cccc(C(F)(F)F)c2)cc1 [Compound G(xi), (Z)-N-(1-(4-(3-(Trifluoromethyl)phenyl)phenyl)-1-(3-(4-methylthienyl))prop-1-en-3-yl)sarcosine] | 0 | 0 | 0 | 0 | 0 | 0 | 0 | 0 | 0 | – | – |
| CC(C)c1ccc(-c2ccc(/C(=C/CN(C)CC(=O)O)c3ccsc3)cc2)cc1 [Compound G(i), (Z)-N-(1-(4-(4-Isopropylphenyl)phenyl)-1-(3-thienyl)prop-1-en-3-yl)sarcosine] | 0 | 0 | 0 | 0 | 0 | 0 | 0 | 0 | 0 | 0 | – |
| COc1cccc(-c2ccc(/C(=C/CN(C)CC(=O)O)c3ccsc3)cc2)c1 [Compound G(v), (Z)-N-(1-(4-(3-Methoxyphenyl)phenyl)-1-(3-thienyl)prop-1-en-3-yl)sarcosine] | 0 | 0 | 0 | 0 | 0 | 0 | 0 | 0 | 0 | 0 | – |
